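A five-concentration, 48-hour dose response in 96-well plates underlies each endpoint, interpolated linearly between surrounding concentrations. TGI denotes the concentration required for complete inhibition of growth.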
What was measured:
Test in all cases: NCI tumour cell line growth inhibition, 48 h
MCF7 breast = test system: MCF7 breast
SN12K1 renal = test system: SN12K1 renal
SK-MEL-2 melanoma = test system: SK-MEL-2 melanoma
MALME-3M melanoma = test system: MALME-3M melanoma
DLD-1 colon = test system: DLD-1 colon
HOP-18 NSCLC = test system: HOP-18 NSCLC
OVCAR-4 ovarian = test system: OVCAR-4 ovarian
HT29 colon = test system: HT29 colon
RPMI-8226 leukemia = test system: RPMI-8226 leukemia
KM20L2 colon = test system: KM20L2 colon
SW-620 colon = test system: SW-620 colon
HOP-62 NSCLC = test system: HOP-62 NSCLC
KM12 colon = test system: KM12 colon
CCRF-CEM leukemia = test system: CCRF-CEM leukemia
OVCAR-3 ovarian = test system: OVCAR-3 ovarian
DMS 273 small cell lung = test system: DMS 273 small cell lung
P388/ADR leukemia = test system: P388/ADR leukemia
HCC-2998 colon = test system: HCC-2998 colon
A498 renal = test system: A498 renal
M19-MEL melanoma = test system: M19-MEL melanoma
LOX IMVI melanoma = test system: LOX IMVI melanoma
XF 498 CNS = test system: XF 498 CNS
UO-31 renal = test system: UO-31 renal
SK-OV-3 ovarian = test system: SK-OV-3 ovarian
DMS 114 small cell lung = test system: DMS 114 small cell lung
A549 NSCLC = test system: A549 NSCLC
K-562 leukemia = test system: K-562 leukemia
SF-539 CNS = test system: SF-539 CNS
HCT-116 colon = test system: HCT-116 colon
NCI/ADR-RES ovarian = test system: NCI/ADR-RES ovarian
HCT-15 colon = test system: HCT-15 colon
SN12C renal = test system: SN12C renal
U251 CNS = test system: U251 CNS
NCI-H522 lung = test system: NCI-H522 lung
SNB-75 CNS = test system: SNB-75 CNS
NCI-H460 lung = test system: NCI-H460 lung
OVCAR-5 ovarian = test system: OVCAR-5 ovarian
UACC-62 melanoma = test system: UACC-62 melanoma
P388 leukemia = test system: P388 leukemia
SK-MEL-28 melanoma = test system: SK-MEL-28 melanoma
NCI-H226 lung = test system: NCI-H226 lung
SNB-19 CNS = test system: SNB-19 CNS
OVCAR-8 ovarian = test system: OVCAR-8 ovarian
SF-295 CNS = test system: SF-295 CNS
EKVX NSCLC = test system: EKVX NSCLC
SK-MEL-5 melanoma = test system: SK-MEL-5 melanoma
SF-268 CNS = test system: SF-268 CNS
MOLT-4 leukemia = test system: MOLT-4 leukemia
RXF 393 renal = test system: RXF 393 renal
NCI-H23 lung = test system: NCI-H23 lung
UACC-257 melanoma = test system: UACC-257 melanoma
IGROV1 ovarian = test system: IGROV1 ovarian
HOP-92 NSCLC = test system: HOP-92 NSCLC
HL-60(TB) leukemia = test system: HL-60(TB) leukemia
COLO 205 colon = test system: COLO 205 colon
SNB-78 CNS = test system: SNB-78 CNS
CAKI-1 renal = test system: CAKI-1 renal

Compound: O=S(=O)(O)c1ccc(N=Nc2ccc(N=Nc3ccc(/C=C/c4ccc(N=[N+]([O-])c5ccc(/C=C/c6ccc(N=Nc7ccc(N=Nc8ccc(S(=O)(=O)O)cc8)cc7)cc6S(=O)(=O)O)c(S(=O)(=O)O)c5)cc4S(=O)(=O)O)c(S(=O)(=O)O)c3)cc2)cc1
- TGI (MCF7 breast): > 100 µM
- TGI (SN12K1 renal): > 100 µM
- TGI (SK-MEL-2 melanoma): > 100 µM
- TGI (MALME-3M melanoma): > 100 µM
- TGI (DLD-1 colon): > 100 µM
- TGI (HOP-18 NSCLC): > 100 µM
- TGI (OVCAR-4 ovarian): > 100 µM
- TGI (HT29 colon): > 100 µM
- TGI (RPMI-8226 leukemia): > 100 µM
- TGI (KM20L2 colon): > 100 µM
- TGI (SW-620 colon): > 100 µM
- TGI (HOP-62 NSCLC): > 100 µM
- TGI (KM12 colon): > 100 µM
- TGI (CCRF-CEM leukemia): > 100 µM
- TGI (OVCAR-3 ovarian): > 100 µM
- TGI (DMS 273 small cell lung): > 100 µM
- TGI (P388/ADR leukemia): > 100 µM
- TGI (HCC-2998 colon): > 100 µM
- TGI (A498 renal): > 100 µM
- TGI (M19-MEL melanoma): > 100 µM
- TGI (LOX IMVI melanoma): > 100 µM
- TGI (XF 498 CNS): > 100 µM
- TGI (UO-31 renal): > 100 µM
- TGI (SK-OV-3 ovarian): > 100 µM
- TGI (DMS 114 small cell lung): > 100 µM
- TGI (A549 NSCLC): > 100 µM
- TGI (K-562 leukemia): > 100 µM
- TGI (SF-539 CNS): > 100 µM
- TGI (HCT-116 colon): > 100 µM
- TGI (NCI/ADR-RES ovarian): > 100 µM
- TGI (HCT-15 colon): > 100 µM
- TGI (SN12C renal): > 100 µM
- TGI (U251 CNS): > 100 µM
- TGI (NCI-H522 lung): > 100 µM
- TGI (SNB-75 CNS): > 100 µM
- TGI (NCI-H460 lung): > 100 µM
- TGI (OVCAR-5 ovarian): > 100 µM
- TGI (UACC-62 melanoma): > 100 µM
- TGI (P388 leukemia): > 100 µM
- TGI (SK-MEL-28 melanoma): > 100 µM
- TGI (NCI-H226 lung): > 100 µM
- TGI (SNB-19 CNS): > 100 µM
- TGI (OVCAR-8 ovarian): > 100 µM
- TGI (SF-295 CNS): > 100 µM
- TGI (EKVX NSCLC): > 100 µM
- TGI (SK-MEL-5 melanoma): > 100 µM
- TGI (SF-268 CNS): > 100 µM
- TGI (MOLT-4 leukemia): > 100 µM
- TGI (RXF 393 renal): > 100 µM
- TGI (NCI-H23 lung): > 100 µM
- TGI (UACC-257 melanoma): > 100 µM
- TGI (IGROV1 ovarian): > 100 µM
- TGI (HOP-92 NSCLC): > 100 µM
- TGI (HL-60(TB) leukemia): > 100 µM
- TGI (COLO 205 colon): > 100 µM

Compound: CCCCOc1ccc(OCCCCCCCCCC[N+](C)(C)C)cc1
- TGI (MCF7 breast): 14.8 µM
- TGI (SN12K1 renal): 8.54 µM
- TGI (SK-MEL-2 melanoma): 5 µM
- TGI (MALME-3M melanoma): 16 µM
- TGI (DLD-1 colon): 21.5 µM
- TGI (HOP-18 NSCLC): 13.7 µM
- TGI (OVCAR-4 ovarian): 14.8 µM
- TGI (HT29 colon): 2.46 µM
- TGI (RPMI-8226 leukemia): 2.33 µM
- TGI (KM20L2 colon): 3.87 µM
- TGI (SW-620 colon): 14.9 µM
- TGI (HOP-62 NSCLC): 13.7 µM
- TGI (KM12 colon): 2.97 µM
- TGI (CCRF-CEM leukemia): 3.87 µM
- TGI (OVCAR-3 ovarian): 7.89 µM
- TGI (DMS 273 small cell lung): 4.25 µM
- TGI (P388/ADR leukemia): 17.8 µM
- TGI (HCC-2998 colon): 6.28 µM
- TGI (A498 renal): 28.6 µM
- TGI (LOX IMVI melanoma): 3.81 µM
- TGI (XF 498 CNS): 4.57 µM
- TGI (UO-31 renal): 23 µM
- TGI (SK-OV-3 ovarian): 10.8 µM
- TGI (DMS 114 small cell lung): 6.75 µM
- TGI (A549 NSCLC): 15.2 µM
- TGI (K-562 leukemia): 15.4 µM
- TGI (SF-539 CNS): 14.3 µM
- TGI (HCT-116 colon): 9.31 µM
- TGI (NCI/ADR-RES ovarian): > 100 µM
- TGI (HCT-15 colon): 30.5 µM
- TGI (SN12C renal): 12.2 µM
- TGI (U251 CNS): 9.16 µM
- TGI (NCI-H522 lung): 5.22 µM
- TGI (SNB-75 CNS): 6.44 µM
- TGI (NCI-H460 lung): 12.7 µM
- TGI (OVCAR-5 ovarian): 17.2 µM
- TGI (UACC-62 melanoma): 15.7 µM
- TGI (P388 leukemia): 3.06 µM
- TGI (SK-MEL-28 melanoma): 18 µM
- TGI (NCI-H226 lung): 15.2 µM
- TGI (SNB-19 CNS): 23.3 µM
- TGI (OVCAR-8 ovarian): 22 µM
- TGI (SF-295 CNS): 19.9 µM
- TGI (EKVX NSCLC): 46 µM
- TGI (SK-MEL-5 melanoma): 3.81 µM
- TGI (SF-268 CNS): 13.9 µM
- TGI (MOLT-4 leukemia): 3.27 µM
- TGI (SNB-78 CNS): 9.78 µM
- TGI (RXF 393 renal): 3.34 µM
- TGI (NCI-H23 lung): 11 µM
- TGI (UACC-257 melanoma): 17.8 µM
- TGI (IGROV1 ovarian): 3.52 µM
- TGI (CAKI-1 renal): 16.6 µM
- TGI (HOP-92 NSCLC): 3.65 µM
- TGI (HL-60(TB) leukemia): 1.49 µM
- TGI (COLO 205 colon): 2.68 µM
